Test results reported in patent US20100022509A1, “Inhibitors of MshC and Homologs Thereof, and Methods of Identifying Same” (priority 2006, published 2010).

What follows are compounds tested against T1, MshC (Mycobacterium tuberculosis, UniProt P9WJM9) (assay: biochemical). Conditions: not given.
T1 sequence (P9WJM9 1-414): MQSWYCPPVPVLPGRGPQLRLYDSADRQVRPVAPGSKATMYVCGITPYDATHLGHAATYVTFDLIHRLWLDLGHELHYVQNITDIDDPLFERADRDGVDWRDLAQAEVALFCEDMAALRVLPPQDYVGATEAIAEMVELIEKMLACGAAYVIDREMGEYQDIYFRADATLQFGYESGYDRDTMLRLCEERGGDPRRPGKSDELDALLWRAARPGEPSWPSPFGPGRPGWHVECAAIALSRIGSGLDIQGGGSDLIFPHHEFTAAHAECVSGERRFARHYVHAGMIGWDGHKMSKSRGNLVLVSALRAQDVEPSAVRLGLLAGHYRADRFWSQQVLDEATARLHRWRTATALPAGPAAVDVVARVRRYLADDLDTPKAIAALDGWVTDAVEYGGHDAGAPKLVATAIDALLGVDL
Assay type: biochemical, M. tuberculosis
With `O=C(NCCCN1CCC(Cc2ccccc2)CC1)c1ccc2c(c1)N(Cc1ccccc1F)C(=O)c1ccccc1[S+]2[O-]` (centres unmarked) [Inhibitor 83-02] the “inhibition of MshC in words, compounds lacking the basic amino group or with groups in excess of 10 carbons on the remote amino residue” value (“inhibition of MshC … on the remote amino residue” below) was “little or no inhibition”.
In the case of `Cc1ccc(C)c(CN2C(=O)c3ccccc3[S+]([O-])c3ccc(C(=O)NCCCN4CCCCCC4)cc32)c1` (centres unmarked) [Inhibitor 83-07], the “inhibition of MshC in words, 1,3-diaminopropyl residue with remote amino residue capable of protonation” value (from here on “inhibition of MshC in words … of protonation”) is reported as “measurable inhibition” and the “inhibition of MshC in words, Z benzyl moiety with methyl groups in the 2,5 positions or unsubstituted” value is reported as “Weak but detectable inhibition”.
`CN(CCCNC(=O)c1ccc2c(c1)N(Cc1ccccc1)C(=O)c1ccccc1[S+]2[O-])C1CCCCC1` (centres unmarked) [Inhibitor 83-11] was tested, and the “inhibition of MshC in words … of protonation” value was “measurable inhibition”.
In the case of `O=C(NCCCSC1CCCCC1)c1ccc2c(c1)N(Cc1ccccc1)C(=O)c1ccccc1[S+]2[O-]` (centres unmarked) [Inhibitor 83-12], the “inhibition of MshC … on the remote amino residue” value is reported as “little or no inhibition”.
For `O=C(NCCCN1CCN(c2cccc(Cl)c2)CC1)c1ccc2c(c1)N(Cc1ccc(Cl)cc1)C(=O)c1ccccc1S2(=O)=O` [Inhibitor 83-26], the “inhibition of MshC … on the remote amino residue” value was “little or no inhibition”.
`CCC1CCCCN1CCCNC(=O)c1ccc2c(c1)N(Cc1ccc(Cl)cc1)C(=O)c1ccccc1S2(=O)=O` (centres unmarked) [Inhibitor 83-27] was tested, and the “inhibition of MshC in words … of protonation” value was “measurable inhibition” and the “inhibition of MshC in words, Z is a benzyl moiety bearing one or more halogens” value was “Measurable inhibition”.
In the case of `O=C(NCCCN1CCCC1)c1ccc2c(c1)N(Cc1ccc(Cl)cc1)C(=O)c1ccccc1S2(=O)=O` [Inhibitor 83-28], the “inhibition of MshC in words … of protonation” value is reported as “measurable inhibition”, the “inhibition of MshC in words, Z is a benzyl moiety bearing one or more halogens” value is reported as “Measurable inhibition” and the “inhibition of MshC in words, compounds grouped by X” value (shortened to “inhibition of MshC in words … by X”) is reported as “Significant inhibition”.
For `O=C(NCCCN1CCN(c2ccc(F)cc2)CC1)c1ccc2c(c1)N(Cc1ccc(Cl)cc1)C(=O)c1ccccc1S2(=O)=O` [Inhibitor 83-32], the “inhibition of MshC … on the remote amino residue” value was “little or no inhibition”.
With `O=C(NCCCN1CCC(Cc2ccccc2)CC1)c1ccc2c(c1)N(Cc1ccc(Cl)cc1)C(=O)c1ccccc1S2(=O)=O` [Inhibitor 83-33] the “inhibition of MshC … on the remote amino residue” value was “little or no inhibition”.
With `O=C(NCCN1CCCC1)c1ccc2c(c1)N(Cc1ccccc1F)C(=O)c1ccccc1S2(=O)=O` [Inhibitor 83-39] the “inhibition of MshC in words … of protonation” value was “measurable inhibition” and the “inhibition of MshC in words, Z is a benzyl moiety bearing one or more halogens” value was “Measurable inhibition”.
With `CC1CCCN(CCCNC(=O)c2ccc3c(c2)N(Cc2ccccc2F)C(=O)c2ccccc2S3(=O)=O)C1` (centres unmarked) [Inhibitor 83-40] the “inhibition of MshC in words … of protonation” value was “measurable inhibition” and the “inhibition of MshC in words, Z is a benzyl moiety bearing one or more halogens” value was “Measurable inhibition”.
For `O=C(NCCN1CCN(Cc2ccccc2)CC1)c1ccc2c(c1)N(Cc1ccccc1F)C(=O)c1ccccc1S2(=O)=O` [Inhibitor 83-42], the “inhibition of MshC … on the remote amino residue” value was “little or no inhibition”.
With `Cc1ccc(C)c(CN2C(=O)c3ccccc3S(=O)(=O)c3ccc(C(=O)NCCCN4CCCCCC4)cc32)c1` [Inhibitor 83-44] the “inhibition of MshC in words … of protonation” value was “measurable inhibition”.
In the case of `Cc1ccc(C)c(CN2C(=O)c3ccccc3S(=O)(=O)c3ccc(C(=O)NCCCSC4CCCCC4)cc32)c1` [Inhibitor 83-47], the “inhibition of MshC … on the remote amino residue” value is reported as “little or no inhibition”.

Same assay, conditions: IC50
For `CCC1CCCCN1CCCNC(=O)c1ccc2c(c1)N(Cc1ccccc1F)C(=O)c1ccccc1[S+]2[O-]` (centres unmarked) [Inhibitor 83-01], the IC50 was greater than 3 mM.
`O=C(NCCCN1CCC(Cc2ccccc2)CC1)c1ccc2c(c1)N(Cc1ccccc1F)C(=O)c1ccccc1[S+]2[O-]` (centres unmarked) [Inhibitor 83-02] was tested, and the IC50 was greater than 3 mM.
`CN(CCCNC(=O)c1ccc2c(c1)N(Cc1ccccc1F)C(=O)c1ccccc1[S+]2[O-])C1CCCCC1` (centres unmarked) [Inhibitor 83-03] was tested, and the IC50 was greater than 3 mM.
In the case of `O=C(NCCCSC1CCCCC1)c1ccc2c(c1)N(Cc1ccccc1F)C(=O)c1ccccc1[S+]2[O-]` (centres unmarked) [Inhibitor 83-04], the IC50 is reported as greater than 3 mM.
`CCCN(CCC)CCCNC(=O)c1ccc2c(c1)N(Cc1ccc(F)cc1)C(=O)c1ccccc1[S+]2[O-]` (centres unmarked) [Inhibitor 83-05] showed an IC50 greater than 3 mM.
Compound `CCN(CC)CCCNC(=O)c1ccc2c(c1)N(Cc1cc(C)ccc1C)C(=O)c1ccccc1[S+]2[O-]` (centres unmarked) [Inhibitor 83-06] has an IC50 greater than 3 mM.
Work on `Cc1ccc(C)c(CN2C(=O)c3ccccc3[S+]([O-])c3ccc(C(=O)NCCCN4CCCCCC4)cc32)c1` (centres unmarked) [Inhibitor 83-07] yielded an IC50 of 0.65 ± 0.05 mM.
In the case of `Cc1ccc(C)c(CN2C(=O)c3ccccc3[S+]([O-])c3ccc(C(=O)NCCCN(C)C4CCCCC4)cc32)c1` (centres unmarked) [Inhibitor 83-08], the IC50 is reported as roughly 3 mM.
For `Cc1ccc(C)c(CN2C(=O)c3ccccc3[S+]([O-])c3ccc(C(=O)NCCCSC4CCCCC4)cc32)c1` (centres unmarked) [Inhibitor 83-09], the IC50 was greater than 3 mM.
For `O=C(NCCCN1CCOCC1)c1ccc2c(c1)N(Cc1ccccc1)C(=O)c1ccccc1[S+]2[O-]` (centres unmarked) [Inhibitor 83-10], the IC50 was greater than 3 mM.
`CN(CCCNC(=O)c1ccc2c(c1)N(Cc1ccccc1)C(=O)c1ccccc1[S+]2[O-])C1CCCCC1` (centres unmarked) [Inhibitor 83-11] was tested, and the IC50 was 0.4 ± 0.1 mM.
`O=C(NCCCSC1CCCCC1)c1ccc2c(c1)N(Cc1ccccc1)C(=O)c1ccccc1[S+]2[O-]` (centres unmarked) [Inhibitor 83-12] was tested, and the IC50 was greater than 3 mM.
`CCN1C(=O)c2ccccc2[S+]([O-])c2ccc(C(=O)NCCCN3CCOCC3)cc21` (centres unmarked) [Inhibitor 83-13] gave an IC50 greater than 3 mM.
In the case of `CCN1C(=O)c2ccccc2[S+]([O-])c2ccc(C(=O)NCCCN3CCN(C)CC3)cc21` (centres unmarked) [Inhibitor 83-14], the IC50 is reported as greater than 3 mM.
With `O=C(NCCCN1CCN(c2cccc(Cl)c2)CC1)c1ccc2c(c1)N(Cc1ccc(Cl)cc1)C(=O)c1ccccc1S2(=O)=O` [Inhibitor 83-26] the IC50 was greater than 3 mM.
`CCC1CCCCN1CCCNC(=O)c1ccc2c(c1)N(Cc1ccc(Cl)cc1)C(=O)c1ccccc1S2(=O)=O` (centres unmarked) [Inhibitor 83-27] gave an IC50 of 0.7 ± 0.25 mM.
Work on `O=C(NCCCN1CCCC1)c1ccc2c(c1)N(Cc1ccc(Cl)cc1)C(=O)c1ccccc1S2(=O)=O` [Inhibitor 83-28] yielded an IC50 of 0.25 ± 0.1 mM.
`O=C(NCCCN1CCN(c2ccc(F)cc2)CC1)c1ccc2c(c1)N(Cc1ccc(Cl)cc1)C(=O)c1ccccc1S2(=O)=O` [Inhibitor 83-32] gave an IC50 of roughly 2 mM.
`O=C(NCCCN1CCC(Cc2ccccc2)CC1)c1ccc2c(c1)N(Cc1ccc(Cl)cc1)C(=O)c1ccccc1S2(=O)=O` [Inhibitor 83-33] showed an IC50 greater than 3 mM.
Compound `O=C(NCCN1CCCC1)c1ccc2c(c1)N(Cc1ccccc1F)C(=O)c1ccccc1S2(=O)=O` [Inhibitor 83-39] has an IC50 of 0.1 ± 0.02 mM.
For `CC1CCCN(CCCNC(=O)c2ccc3c(c2)N(Cc2ccccc2F)C(=O)c2ccccc2S3(=O)=O)C1` (centres unmarked) [Inhibitor 83-40], the IC50 was 0.1 ± 0.03 mM.
`O=C(NCCN1CCN(Cc2ccccc2)CC1)c1ccc2c(c1)N(Cc1ccccc1F)C(=O)c1ccccc1S2(=O)=O` [Inhibitor 83-42] was tested, and the IC50 was greater than 3 mM.
`Cc1ccc(C)c(CN2C(=O)c3ccccc3S(=O)(=O)c3ccc(C(=O)NCCCN4CCCCCC4)cc32)c1` [Inhibitor 83-44] showed an IC50 greater than 0.5 mM.
Work on `Cc1ccc(C)c(CN2C(=O)c3ccccc3S(=O)(=O)c3ccc(C(=O)NCCCSC4CCCCC4)cc32)c1` [Inhibitor 83-47] yielded an IC50 greater than 3 mM.

Same assay, conditions: X=S, X=SO, X=SO2
For `Cc1ccc(C)c(CN2C(=O)c3ccccc3[S+]([O-])c3ccc(C(=O)NCCCN4CCCCCC4)cc32)c1` (centres unmarked) [Inhibitor 83-07], the “inhibition of MshC in words … by X” value was “Significant inhibition”.
With `Cc1ccc(C)c(CN2C(=O)c3ccccc3[S+]([O-])c3ccc(C(=O)NCCCN(C)C4CCCCC4)cc32)c1` (centres unmarked) [Inhibitor 83-08] the “inhibition of MshC in words … by X” value was “Significant inhibition”.
In the case of `CN(CCCNC(=O)c1ccc2c(c1)N(Cc1ccccc1)C(=O)c1ccccc1[S+]2[O-])C1CCCCC1` (centres unmarked) [Inhibitor 83-11], the “inhibition of MshC in words … by X” value is reported as “Significant inhibition”.
`CCC1CCCCN1CCCNC(=O)c1ccc2c(c1)N(Cc1ccc(Cl)cc1)C(=O)c1ccccc1S2(=O)=O` (centres unmarked) [Inhibitor 83-27] was tested, and the “inhibition of MshC in words … by X” value was “Significant inhibition”.
`O=C(NCCN1CCCC1)c1ccc2c(c1)N(Cc1ccccc1F)C(=O)c1ccccc1S2(=O)=O` [Inhibitor 83-39] was tested, and the “inhibition of MshC in words … by X” value was “Significant inhibition”.
For `CC1CCCN(CCCNC(=O)c2ccc3c(c2)N(Cc2ccccc2F)C(=O)c2ccccc2S3(=O)=O)C1` (centres unmarked) [Inhibitor 83-40], the “inhibition of MshC in words … by X” value was “Significant inhibition”.
